In US12152038B2, “Vasopressin receptor antagonists and products and methods related thereto” (Neumora Therapeutics, Inc., priority 2017, dated 2024):
Counter-ions that a name gives are not always drawn.

molecular target: T1, human Arginine Vasopressin Receptor 1a (AVPR1a) (Homo sapiens, UniProt P37288); experiment: Vasopressin V1a receptor antagonist assay (FLIPR calcium, CHO-AVPR1a cells); type: cell-based
T1 construct: expressed in transfected cells; host or cells: CHO (CHO-AVPR1a, kept under G418 selection)
Protocol: The purpose of this assay was to determine the inhibitory effect of synthesized compounds on the Vasopressin V1a receptor. The assay was performed in Chinese Hamster Ovary (CHO) cells expressing the human Arginine Vasopressin Receptor 1a (AVPR1a). Arginine Vasopressin (AVP) evokes an increase in intracellular calcium in CHO-AVPR1a cells which is measured in a fluorescence assay on the FLIPR^TETRA using calcium sensitive dyes. Test compounds were assessed for their ability to affect the magnitude of the response to AVP, with antagonists showing a concentration-dependent reduction in the AVP-mediated fluorescence. Compounds were tested in duplicate in a 10-point, 1:3 dilution series starting at a nominal concentration of 3 μM in the assay.
CHO-AVPR1a cells were maintained in routine culture in T175 Flasks at 37° C., 5% CO2. The growth medium consists of Ham's F12 media supplemented with 10% v/v fetal bovine serum, 1× non-essential amino acids, and 0.4 mg/ml Geneticin G418.
On day one, cells were harvested from T175 flasks when they are 80-90% confluent by first washing the cell monolayer with PBS and then dissociated using trypsin 0.05%/EDTA (3 mL for a T175 Flask). The flasks were incubated at room temperature until the cells detached. To the cell suspension, 10 ml of growth media was added and the cell density determined using the Vi-Cell automated cell counter. The cells were spun at 1000 rpm for 3 minutes, then the supernatant was carefully removed and discarded. The cell pellet was re-suspended at 6.0e^5 cells/ml in growth media. 25 μL of cells in growth media was dispensed into each well (15,000 cells per well) of a poly-D-lysine coated black, clear bottomed, 384-well plate. The plates were incubated at 37° C., 5% CO2 overnight.
At the start of each assay day, the potency of AVP was assessed and an EC80 concentration determined for subsequent compound profiling. Assays were performed using a two-step addition protocol on the FLIPR^TETRA; first addition of 5 μl of control or test compound at 10× final in assay buffer with 15 min incubation at 37° C., 5% CO2 followed by 10 μl of AVP at 6× final concentration in assay buffer. Changes in fluorescence were monitored for 3 min after both additions on the FLIPR^TETRA using 470-495 nm excitation and 515-575 nm emission wavelengths. The assay buffer consisted of HBSS (+Ca/+Mg) supplemented with 20 mM HEPES, and for the preparation of the AVP agonist only, 0.1% w/v bovine serum albumin. The assay was initiated by the removal of growth media from the cells and replacement with 45 μl of Calcium-6 dye (Molecular Devices) prepared at 1× in assay buffer. Cells were loaded with dye for 60-90 min at 37° C., 5% CO2 before initiation of the FLIPR^TETRA protocol. […] For compound profiling, test compounds were first serially diluted in DMSO (10-point curve, 1:3 dilutions) then diluted 33.3-fold in assay buffer prior to addition to the dye loaded cells on the FLIPR^TETRA. At the end of the incubation period, 10 μl of AVP in assay buffer containing 0.1% BSA was added at the previously determined EC80 concentration.
In-plate controls for the assay included balovaptan and PF-184563 concentration-response curves as reference V1a antagonists, and an AVP concentration-response curve to confirm the reproducibility of the EC80 used for the compound challenge.

T1 sequence (P37288 whole entry): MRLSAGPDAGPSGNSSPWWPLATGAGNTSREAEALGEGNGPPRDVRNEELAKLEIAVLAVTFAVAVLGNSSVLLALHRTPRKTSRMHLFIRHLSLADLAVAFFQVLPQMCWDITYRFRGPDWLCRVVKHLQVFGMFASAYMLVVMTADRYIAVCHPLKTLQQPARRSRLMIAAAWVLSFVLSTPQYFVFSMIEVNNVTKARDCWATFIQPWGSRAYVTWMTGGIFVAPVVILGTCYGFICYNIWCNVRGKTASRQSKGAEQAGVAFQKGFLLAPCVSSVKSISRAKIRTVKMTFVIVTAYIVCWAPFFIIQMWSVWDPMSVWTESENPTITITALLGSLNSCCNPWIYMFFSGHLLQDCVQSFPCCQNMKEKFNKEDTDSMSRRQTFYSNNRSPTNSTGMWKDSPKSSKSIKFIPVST

IC50 [µM] | Structure (SMILES)
< 0.1 | COc1ccc2c(c1)OCC(C)N2C(=O)N1CC2(C1)CN(c1ccc(F)cn1)C2 (stereo not shown) [1-59]
0.1 to 0.5 | Cn1ccc(N2CC3(CN(C(=O)N4CCOc5cc(Cl)ccc54)C3)C2)n1 [1-10]
0.1 to 0.5 | O=C(N1CC2(C1)CN(c1ccc(C(F)(F)F)cn1)C2)N1CCOc2cc(Cl)ccc21 [1-31]
≥ 1 | Cc1ccnc(N2CC3(CN(C(=O)N4c5ccc(F)cc5OCC4C)C3)C2)c1 (single isomer, unassigned) [20-4-A]
0.1 to 0.5 | O=C(N1CC2(C1)CN(c1ccc(F)cn1)C2)N1CCOc2ccccc21 [1-63]
≥ 1 | CC1COc2cc(F)ccc2N1C(=O)N1CC2(C1)CN(c1cnccn1)C2 (single isomer, unassigned) [1-65-A]
< 0.1 | CC1CN(C(=O)N2CC3(C2)CN(c2ccc(F)cn2)C3)c2ccc(F)cc2O1 (stereo not shown) [9-4]
< 0.1 | Cc1ccnc(N2CC3(CN(C(=O)N4c5ccc(Cl)cc5OCC4C)C3)C2)c1 (single isomer, unassigned) [20-11-B]
0.1 to 0.5 | O=C(N1CC2(C1)CN(c1ccncn1)C2)N1CCOc2cc(Cl)ccc21 [1-74]
< 0.1 | CC1COc2cc(F)ccc2N1C(=O)N1CC2(C1)CN(c1cnccn1)C2 (stereo not shown) [1-65]
< 0.1 | CC1(C)CCN(C(=O)N2CC3(C2)CN(c2ccc(F)cn2)C3)c2ccc(Cl)cc21 [9-9]
0.1 to 0.5 | Cc1nc(N2CC3(CN(C(=O)N4CCOc5cc(Cl)ccc54)C3)C2)no1 [7-1, (7-chloro-2,3-dihydro-4H-benzo[b][1,4]oxazin-4-yl)(6-(5-methyl-1,2,4-oxadiazol-3-yl)-2,6-diazaspiro[3.3]heptan-2-yl)methanone]
≥ 1 | O=C(N1CC2(CN(Cc3ccccn3)C2)C1)N1CCOc2cc(Cl)ccc21 [2-2]
< 0.1 | CC1COc2cc(Cl)ccc2N1C(=O)N1CC2(C1)CN(c1ccc(F)cn1)C2 (stereo not shown) [1-73]
< 0.1 | CCC1COc2cc(F)ccc2N1C(=O)N1CC2(C1)CN(c1ccc(F)cn1)C2 (stereo not shown) [1-56]
0.1 to 0.5 | O=C(N1CC2(C1)CN(c1ccn3ccnc3c1)C2)N1CCOc2cc(Cl)ccc21 [5-1, (7-chloro-2,3-dihydro-4H-benzo[b][1,4]oxazin-4-yl)(6-(imidazo[1,2-a]pyridin-7-yl)-2,6-diazaspiro[3.3]heptan-2-yl)methanone formate]
< 0.1 | Cc1cc(C)nc(N2CC3(CN(C(=O)N4CCOc5cc(Cl)ccc54)C3)C2)n1 [1-38]
< 0.1 | O=C(N1CC2(C1)CN(c1cnc(Br)cn1)C2)N1CCOc2cc(Cl)ccc21 [1-19]
< 0.1 | O=C(N1CC2(C1)CN(c1ncccc1F)C2)N1CCC(O)c2cc(Cl)ccc21 (stereo not shown) [13-4]
≥ 1 | CC1COc2cc(F)ccc2N1C(=O)N1CC2(C1)CN(c1ncccc1F)C2 (single isomer, unassigned) [1-67-B]

IC50 [µM] | Structure (SMILES)
≥ 1 | O=C(N1CC2(CN(Cc3cnccn3)C2)C1)N1CCOc2cc(Cl)ccc21 [2-5]
0.5 to 1 | CC1COc2cc(Cl)ccc2N1C(=O)N1CC2(C1)CN(c1ccccn1)C2 (single isomer, unassigned) [1-60-A]
< 0.1 | CN1CCCN(C(=O)N2CC3(C2)CN(c2ccc(F)cn2)C3)c2ccc(F)cc21 [8-10]
0.1 to 0.5 | Cn1ccc2ncc(N3CC4(CN(C(=O)N5CCOc6cc(Cl)ccc65)C4)C3)cc21 [1-41]
< 0.1 | O=C(N1CC2(C1)CN(c1cc(C(F)F)ccn1)C2)N1CCOc2cc(Cl)ccc21 [1-80]
≥ 1 | CC1COc2cc(Cl)ccc2N1C(=O)N1CC2(C1)CN(c1cnccn1)C2 (single isomer, unassigned) [1-58-A]
0.1 to 0.5 | COc1ncccc1N1CC2(CN(C(=O)N3CCOc4cc(Cl)ccc43)C2)C1 [1-8]
≥ 1 | O=C(N1CC2(C1)CN(c1ccc(OC(F)F)cn1)C2)N1CCOc2cc(Cl)ccc21 [1-12]
< 0.1 | O=C(N1CC2(C1)CN(c1ncc(F)cc1F)C2)N1CCOc2cc(Cl)ccc21 [1-50]
0.1 to 0.5 | CC1COc2cc(Cl)ccc2N1C(=O)N1CC2(C1)CN(c1nn(C)c3ncccc13)C2 (single isomer, unassigned) [20-15-A]
< 0.1 | CC1COc2cc(F)ccc2N1C(=O)N1CC2(C1)CN(c1ccccn1)C2 (stereo not shown) [1-66]
≥ 1 | CC1COc2cc(Cl)ccc2N1C(=O)N1CC2(C1)CN(c1cccnc1)C2 (single isomer, unassigned) [20-1-A]
< 0.1 | COc1cccc(N2CC3(CN(C(=O)N4CCOc5cc(Cl)ccc54)C3)C2)n1 [1-2]
< 0.1 | O=C(N1CC2(C1)CN(c1ccc(F)cn1)C2)N1CCC(O)c2c1ccc(Cl)c2F (stereo not shown) [13-5]
≥ 1 | CC(c1cccnc1)N1CC2(CN(C(=O)N3CCOc4cc(Cl)ccc43)C2)C1 (stereo not shown) [2-4]
< 0.1 | O=C(N1CC2(C1)CN(c1ccc(F)cn1)C2)N1CCCc2cc(Cl)ccc21 [9-8]
< 0.1 | Cc1ccnc(N2CC3(CN(C(=O)N4c5ccc(F)cc5OCC4C)C3)C2)c1 (stereo not shown) [20-4]
< 0.1 | Cc1ccc(N2CC3(CN(C(=O)N4CCOc5cc(Cl)ccc54)C3)C2)nc1 [1-13]
0.1 to 0.5 | Cn1nccc1N1CC2(CN(C(=O)N3CCOc4cc(Cl)ccc43)C2)C1 [1-42]
< 0.1 | Cc1cnc(N2CC3(CN(C(=O)N4c5ccc(Cl)cc5OCC4C)C3)C2)cn1 (stereo not shown) [20-5]
